Experimental data as given in patent US12527797B2, “Isochromene derivatives as phosphoinositide 3-kinases inhibitors” (CHIESI FARMACEUTICI S.P.A., priority 2019, dated 2026).
Like-named read-outs stand apart in the source and are kept apart here.

Experiments:
[1] = system: PI3Kδ-AKT pathway endogenously expressed on THP-1 cells; experiment: PI3Kδ enzyme inhibitory activity in the THP-1 assay (M-CSF stimulated pAKT, HTRF); type: cell-based; settings: for IC50: Homo sapiens, THP-1 cells, M-CSF 2.5 ng/mL, pAKT Ser473, read-out: THP-1 IC50 nM Cellular; for Delta cell drop-off (Cellular/enzymatic activity = THP-1 IC50 nM/Delta Ki nM): ratio THP-1 IC50 / Delta Ki
[2] = system: Ovalbumin (OVA) induced lung eosinophilia; experiment: Rat model of ovalbumin (OVA) induced lung eosinophilia (WET administration, saline suspension i.t.); type: in vivo, Brown Norway rats
PI3Kδ [3] = molecular target: T1, PI3Kδ (Homo sapiens, UniProt O00329); experiment: PI3K enzyme inhibitory activity in the cell free assay (ADP-Glo Kinase Assay); type: biochemical; settings: cell free enzymatic assay; for IC50: ATP 80 μM, read-out: Enzymatic Delta IC50; for Ki: read-out: Enzymatic Delta Ki
T1 construct: purchased Millipore Ltd (Billerica, MA)

Lung retention = settings: reason why not tested in OVA model
PI3Kγ = molecular target: T2, PI3Kγ (Homo sapiens, UniProt P48736); settings: cell free assay; reproduced from WO2015091685; read-out: PI3K gamma inhibition; cited from earlier work
T2 construct: purchased Millipore Ltd (Billerica, MA)

PI3Kα = molecular target: T3, PI3Kα (Homo sapiens, UniProt P42336); settings: cell free assay; reproduced from WO2015091685; read-out: PI3K alpha inhibition; cited from earlier work
T3 construct: purchased Millipore Ltd (Billerica, MA)

PI3Kβ = molecular target: T4, PI3Kβ (Homo sapiens, UniProt P42338); settings: cell free assay; reproduced from WO2015091685; read-out: PI3K beta inhibition; cited from earlier work
T4 construct: purchased Millipore Ltd (Billerica, MA)

PI3Kδ [4] = molecular target: T1, PI3Kδ; settings: cell free assay; reproduced from WO2015091685; read-out: PI3K delta inhibition; cited from earlier work
[5] = administered 12 h before OVA challenge, 0.1 μmol/kg (ED80) for compounds of the invention

T1 sequence (O00329 whole entry): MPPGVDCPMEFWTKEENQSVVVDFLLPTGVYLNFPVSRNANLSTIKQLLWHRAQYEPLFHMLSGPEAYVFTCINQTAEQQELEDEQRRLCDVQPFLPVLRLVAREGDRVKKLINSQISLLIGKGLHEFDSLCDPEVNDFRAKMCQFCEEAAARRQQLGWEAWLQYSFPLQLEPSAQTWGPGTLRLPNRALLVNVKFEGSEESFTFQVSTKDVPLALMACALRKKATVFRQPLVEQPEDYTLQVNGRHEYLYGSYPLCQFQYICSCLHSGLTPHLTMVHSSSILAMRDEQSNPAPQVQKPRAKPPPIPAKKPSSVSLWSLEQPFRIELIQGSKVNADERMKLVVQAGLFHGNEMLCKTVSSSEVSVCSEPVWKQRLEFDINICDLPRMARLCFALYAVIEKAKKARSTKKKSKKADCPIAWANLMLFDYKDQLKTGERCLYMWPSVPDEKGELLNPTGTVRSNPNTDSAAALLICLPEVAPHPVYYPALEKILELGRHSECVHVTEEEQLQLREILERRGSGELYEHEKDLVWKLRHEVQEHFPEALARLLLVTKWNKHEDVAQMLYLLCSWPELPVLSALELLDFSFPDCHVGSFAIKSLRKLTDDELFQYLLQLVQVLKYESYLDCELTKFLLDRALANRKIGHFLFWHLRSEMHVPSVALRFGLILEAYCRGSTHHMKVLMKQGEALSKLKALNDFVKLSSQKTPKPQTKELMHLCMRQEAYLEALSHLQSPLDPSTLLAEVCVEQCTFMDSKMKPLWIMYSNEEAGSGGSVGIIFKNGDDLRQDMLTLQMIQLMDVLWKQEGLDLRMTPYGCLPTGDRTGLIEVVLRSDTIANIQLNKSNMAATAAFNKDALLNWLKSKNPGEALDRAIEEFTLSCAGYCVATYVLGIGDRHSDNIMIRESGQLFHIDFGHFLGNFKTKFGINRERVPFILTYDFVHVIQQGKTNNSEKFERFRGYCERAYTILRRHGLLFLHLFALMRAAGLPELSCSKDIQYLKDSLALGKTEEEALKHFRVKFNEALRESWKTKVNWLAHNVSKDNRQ
T1 sequence (P27986 whole entry partner): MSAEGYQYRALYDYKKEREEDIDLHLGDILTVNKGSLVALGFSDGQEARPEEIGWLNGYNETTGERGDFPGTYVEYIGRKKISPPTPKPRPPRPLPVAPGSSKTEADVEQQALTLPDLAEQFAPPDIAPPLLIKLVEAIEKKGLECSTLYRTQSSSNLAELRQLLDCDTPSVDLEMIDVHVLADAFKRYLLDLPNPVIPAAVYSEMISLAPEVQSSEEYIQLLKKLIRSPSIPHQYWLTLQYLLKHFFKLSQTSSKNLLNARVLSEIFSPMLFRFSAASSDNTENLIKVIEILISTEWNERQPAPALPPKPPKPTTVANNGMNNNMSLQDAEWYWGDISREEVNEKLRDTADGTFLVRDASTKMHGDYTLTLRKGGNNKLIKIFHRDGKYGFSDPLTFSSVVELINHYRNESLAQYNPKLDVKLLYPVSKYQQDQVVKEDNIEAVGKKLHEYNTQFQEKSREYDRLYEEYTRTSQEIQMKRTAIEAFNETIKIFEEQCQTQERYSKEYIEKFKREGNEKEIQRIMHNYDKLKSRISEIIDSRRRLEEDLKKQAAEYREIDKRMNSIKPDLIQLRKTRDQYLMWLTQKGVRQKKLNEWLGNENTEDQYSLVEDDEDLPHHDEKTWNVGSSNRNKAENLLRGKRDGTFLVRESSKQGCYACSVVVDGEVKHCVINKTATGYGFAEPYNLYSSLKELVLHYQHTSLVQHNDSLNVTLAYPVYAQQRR
T4 sequence (P42338 whole entry): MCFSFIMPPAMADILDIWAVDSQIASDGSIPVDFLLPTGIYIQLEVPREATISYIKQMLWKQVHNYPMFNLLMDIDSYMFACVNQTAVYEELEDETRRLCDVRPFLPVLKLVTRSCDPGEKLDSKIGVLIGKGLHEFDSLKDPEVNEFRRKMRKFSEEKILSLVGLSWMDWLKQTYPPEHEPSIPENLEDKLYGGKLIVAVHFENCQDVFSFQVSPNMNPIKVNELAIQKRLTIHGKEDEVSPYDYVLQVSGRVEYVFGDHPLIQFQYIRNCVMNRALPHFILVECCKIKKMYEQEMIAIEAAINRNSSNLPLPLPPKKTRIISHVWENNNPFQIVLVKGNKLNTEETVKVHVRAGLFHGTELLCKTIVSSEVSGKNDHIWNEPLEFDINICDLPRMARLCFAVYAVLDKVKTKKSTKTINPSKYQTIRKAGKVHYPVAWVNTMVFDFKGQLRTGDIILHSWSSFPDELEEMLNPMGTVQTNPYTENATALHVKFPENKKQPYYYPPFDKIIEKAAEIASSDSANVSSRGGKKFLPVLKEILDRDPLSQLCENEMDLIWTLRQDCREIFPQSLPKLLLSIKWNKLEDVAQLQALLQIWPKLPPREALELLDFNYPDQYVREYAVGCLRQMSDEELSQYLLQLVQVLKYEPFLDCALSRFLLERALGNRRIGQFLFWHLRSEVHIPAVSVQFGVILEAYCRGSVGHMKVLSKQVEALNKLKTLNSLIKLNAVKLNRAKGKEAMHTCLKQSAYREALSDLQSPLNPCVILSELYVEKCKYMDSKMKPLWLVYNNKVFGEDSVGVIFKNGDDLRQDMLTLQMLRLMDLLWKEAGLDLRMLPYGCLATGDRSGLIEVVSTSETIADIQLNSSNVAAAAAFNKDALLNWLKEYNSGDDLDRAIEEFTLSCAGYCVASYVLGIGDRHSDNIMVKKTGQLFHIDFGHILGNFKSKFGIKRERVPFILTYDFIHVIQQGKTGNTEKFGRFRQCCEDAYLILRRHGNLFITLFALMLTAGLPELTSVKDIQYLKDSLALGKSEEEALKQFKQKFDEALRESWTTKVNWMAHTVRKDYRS
T2 sequence (P48736 whole entry): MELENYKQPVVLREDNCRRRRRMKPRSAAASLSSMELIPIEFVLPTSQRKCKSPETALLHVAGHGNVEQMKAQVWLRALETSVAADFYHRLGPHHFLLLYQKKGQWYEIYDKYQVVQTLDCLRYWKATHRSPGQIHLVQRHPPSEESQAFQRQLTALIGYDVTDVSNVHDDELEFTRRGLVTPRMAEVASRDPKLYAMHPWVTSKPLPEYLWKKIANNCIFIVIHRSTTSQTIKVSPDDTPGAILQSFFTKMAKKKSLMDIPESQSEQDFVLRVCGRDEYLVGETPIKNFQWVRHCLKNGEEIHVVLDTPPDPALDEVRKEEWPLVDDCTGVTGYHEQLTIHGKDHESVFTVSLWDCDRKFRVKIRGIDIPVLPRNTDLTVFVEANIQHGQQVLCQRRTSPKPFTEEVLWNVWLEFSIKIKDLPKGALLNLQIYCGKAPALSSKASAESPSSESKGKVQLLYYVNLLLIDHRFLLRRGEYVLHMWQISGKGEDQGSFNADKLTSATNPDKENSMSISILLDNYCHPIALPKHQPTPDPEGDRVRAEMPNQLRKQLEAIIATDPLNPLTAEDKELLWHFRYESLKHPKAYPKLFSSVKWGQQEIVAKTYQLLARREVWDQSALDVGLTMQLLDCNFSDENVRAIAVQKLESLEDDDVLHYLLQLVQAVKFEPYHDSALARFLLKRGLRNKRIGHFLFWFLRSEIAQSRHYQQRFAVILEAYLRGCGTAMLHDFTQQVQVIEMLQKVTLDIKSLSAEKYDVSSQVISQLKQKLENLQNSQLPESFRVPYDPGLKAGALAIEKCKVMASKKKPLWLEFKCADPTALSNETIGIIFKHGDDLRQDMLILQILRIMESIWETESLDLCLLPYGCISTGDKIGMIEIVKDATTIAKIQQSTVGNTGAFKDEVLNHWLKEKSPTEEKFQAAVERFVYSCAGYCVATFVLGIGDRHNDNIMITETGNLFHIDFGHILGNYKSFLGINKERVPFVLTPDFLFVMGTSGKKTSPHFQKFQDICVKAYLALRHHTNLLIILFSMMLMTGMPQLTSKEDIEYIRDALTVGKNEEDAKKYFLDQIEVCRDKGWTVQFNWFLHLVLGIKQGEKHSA
T3 sequence (P42336 whole entry): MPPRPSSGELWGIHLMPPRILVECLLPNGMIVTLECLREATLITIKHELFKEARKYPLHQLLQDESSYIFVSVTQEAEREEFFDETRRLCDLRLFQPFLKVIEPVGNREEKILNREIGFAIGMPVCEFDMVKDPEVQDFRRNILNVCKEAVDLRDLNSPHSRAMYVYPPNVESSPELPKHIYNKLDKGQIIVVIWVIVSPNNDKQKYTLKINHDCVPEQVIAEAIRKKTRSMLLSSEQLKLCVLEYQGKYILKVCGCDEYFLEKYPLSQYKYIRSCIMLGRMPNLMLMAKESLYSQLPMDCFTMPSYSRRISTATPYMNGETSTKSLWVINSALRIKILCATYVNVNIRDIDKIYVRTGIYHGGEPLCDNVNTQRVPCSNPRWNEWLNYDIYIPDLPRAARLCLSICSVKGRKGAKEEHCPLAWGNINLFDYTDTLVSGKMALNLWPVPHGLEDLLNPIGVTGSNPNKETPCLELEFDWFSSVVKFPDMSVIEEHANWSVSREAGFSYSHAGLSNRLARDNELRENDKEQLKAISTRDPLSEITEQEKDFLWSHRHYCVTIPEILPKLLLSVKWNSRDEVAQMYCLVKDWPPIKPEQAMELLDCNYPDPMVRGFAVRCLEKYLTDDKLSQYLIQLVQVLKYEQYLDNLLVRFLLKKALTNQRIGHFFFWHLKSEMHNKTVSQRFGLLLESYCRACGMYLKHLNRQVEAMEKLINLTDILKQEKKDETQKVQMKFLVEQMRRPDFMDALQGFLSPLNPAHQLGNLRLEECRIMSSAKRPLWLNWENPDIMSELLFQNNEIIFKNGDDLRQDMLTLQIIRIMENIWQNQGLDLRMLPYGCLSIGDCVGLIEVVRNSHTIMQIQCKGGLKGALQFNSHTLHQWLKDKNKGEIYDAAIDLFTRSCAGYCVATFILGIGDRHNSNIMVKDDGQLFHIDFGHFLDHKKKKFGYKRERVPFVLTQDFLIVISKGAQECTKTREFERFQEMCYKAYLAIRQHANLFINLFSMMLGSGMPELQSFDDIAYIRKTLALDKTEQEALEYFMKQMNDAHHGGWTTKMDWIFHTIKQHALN

IC50 [1]	Delta cell drop-off (Cellular/enzymatic activity = THP-1 IC50 nM/Delta Ki nM) [1]	IC50 (PI3Kδ [3])	Ki (PI3Kδ [3])	SMILES	also measured
0.6 nM	1.2	–	–	CC(c1oc(=O)c2ccccc2c1-c1cccc(CN(C)C)c1)n1nc(-c2cncc(O)c2)c2c(N)ncnc21 (single isomer, unassigned) [Example 2a, 3-(1-(4-amino-3-(5-hydroxypyridin-3-yl)-1H-pyrazolo[3,4-d]pyrimidin-1-yl)ethyl)-4-(3-((dimethylamino)methyl)phenyl)-1H-isochromen-1-one]	% of inhibition (eosinophil recruitment in BALF) [2, 5]: 57%
1.5 nM	–	–	–	CC(c1oc(=O)c2ccccc2c1-c1cccc(CN(C)C)c1)n1nc(-c2cc(O)cc(F)c2)c2c(N)ncnc21 (single isomer, unassigned) [Comparative example 3, reference compound]	% of inhibition (eosinophil recruitment in BALF) ([2]; administered 2 h before OVA challenge, ns = non-significant): 34% ns***
3 nM	7.5	0.8 nM	0.4 nM	CC(c1oc(=O)c2ccccc2c1-c1cc(F)cc(CN2CCN(C)CC2)c1)n1nc(-c2cncc(O)c2)c2c(N)ncnc21 (stereo not drawn) [Example 6, 3-(1-(4-Amino-3-(5-hydroxypyridin-3-yl)-1H-pyrazolo[3,4-d]pyrimidin-1-yl)ethyl)-4-(3-fluoro-5-((4-methylpiperazin-1-yl)methyl)phenyl)-1H-isochromen-1-one]	–
3.9 nM	9.7	0.7 nM	0.4 nM	CC(c1oc(=O)c2ccccc2c1-c1ccc(Cl)c(CN(C)C)c1)n1nc(-c2cncc(O)c2)c2c(N)ncnc21 (stereo not drawn) [Example 3, 3-{1-[4-Amino-3-(5-hydroxypyridin-3-yl)-1H-pyrazolo[3,4-d]pyrimidin-1-yl]ethyl}-4-{4-chloro-3-[(dimethylamino)methyl]phenyl}-1H-isochromen-1-one]	–
2.8 nM	3.1	–	–	CC(c1oc(=O)c2ccccc2c1-c1cccc(CN2CCN(C)CC2)c1)n1nc(-c2cncc(O)c2)c2c(N)ncnc21 (single isomer, unassigned) [Example 1a, 3-{1-[4-Amino-3-(5-hydroxypyridin-3-yl)-1H-pyrazolo[3,4-d]pyrimidin-1-yl]ethyl}-4-{3-[(4-methylpiperazin-1-yl)methyl]phenyl}-1H-isochromen-1-one]	% of inhibition (eosinophil recruitment in BALF) [2, 5]: 55%
1.6 nM	–	–	–	CC(c1oc(=O)c2ccccc2c1-c1ccccc1)n1nc(-c2cncc(O)c2)c2c(N)ncnc21 (single isomer, unassigned) [Comparative example 2, reference compound]	lung retention (Lung retention): Compound not even tested in OVA model for Insufficient lung retention****
–	–	–	–	CC(c1oc(=O)c2ccccc2c1-c1cccc(CN2CCN(C)CC2)c1)n1nc(-c2cc(O)cc(F)c2)c2c(N)ncnc21 (racemic) [Example 142, 3-(1-(4-amino-3-(3-fluoro-5-hydroxyphenyl)-1H-pyrazolo[3,4-d]pyrimidin-1-yl)ethyl)-4-(3-((4-methylpiperazin-1-yl)methyl)phenyl)-1H-isochromen-1-one]	IC50 (PI3Kγ): > 1000 nM; IC50 (PI3Kα): > 1000 nM; IC50 (PI3Kβ): > 1000 nM; IC50 (PI3Kδ [4]): < 10 nM
1 nM	10	0.3 nM	0.1 nM	CC(c1oc(=O)c2ccccc2c1-c1cccc([C@H]2CCCN2C)c1)n1nc(-c2cncc(O)c2)c2c(N)ncnc21 (single isomer, unassigned) [Example 4a]	–
1.8 nM	3.6	1 nM	0.5 nM	CC(c1oc(=O)c2ccccc2c1-c1ccc(F)c(CN2CCN(C)CC2)c1)n1nc(-c2cncc(O)c2)c2c(N)ncnc21 (stereo not drawn) [Example 5, 3-{1-[4-Amino-3-(5-hydroxypyridin-3-yl)-1H-pyrazolo[3,4-d]pyrimidin-1-yl]ethyl}-4-{4-fluoro-3-[(4-methylpiperazin-1-yl)methyl]phenyl}-1H-isochromen-1-one]	–
3.9 nM	4.9	1.6 nM	0.8 nM	CC(c1cccc(-c2c(C(C)n3nc(-c4cncc(O)c4)c4c(N)ncnc43)oc(=O)c3ccccc23)c1)N(C)C (stereo not drawn) [Example 7, 3-(1-(4-Amino-3-(5-hydroxypyridin-3-yl)-1H-pyrazolo[3,4-d]pyrimidin-1-yl)ethyl)-4-(3-(1-(dimethylamino)ethyl)phenyl)-1H-isochromen-1-one]	–
1.8 nM	1.6	2.2 nM	1.1 nM	CC(c1oc(=O)c2ccccc2c1-c1cccc(CN2CCN(C)CC2)c1)n1nc(-c2cc(O)cc(F)c2)c2c(N)ncnc21 (single isomer, unassigned) [Comparative example 1, 3-(1-(4-amino-3-(3-fluoro-5-hydroxyphenyl)-1H-pyrazolo[3,4-d]pyrimidin-1-yl)ethyl)-4-(3-((4-methylpiperazin-1-yl)methyl)phenyl)-1H-isochromen-1-one, reference compound]	% of inhibition (eosinophil recruitment in BALF) [2, 5]: 0% (Not durable)
